Experimental data published in ChEMBL document CHEMBL3784925, “Discovery of a New Inhibitor of Myeloid Differentiation 2 from Cinnamamide Derivatives with Anti-Inflammatory Activity in Sepsis and Acute Lung Injury” (J Med Chem, 2016).
Activity calls are given as the source filed them. The calls are words filed in the database; no cut-off is given here.

Legend:
[1] = Cytotoxicity against C57BL/6 mouse primary peritoneal macrophages assessed as reduction in cell viability at 10 uM after 24 hrs by MTT assay; assay type: cell-based; settings: peritoneal macrophage cell
[2] = target: T1, Lymphocyte antigen 96 (Homo sapiens) (UniProt Q9Y6Y9); assay: Binding affinity to recombinant human MD2 (17 to 160 residues) expressed in Escherichia coli BL21(DE3) cells at 6.25 to 100 uM by surface plasmon resonance analysis
T1 sequence (whole entry): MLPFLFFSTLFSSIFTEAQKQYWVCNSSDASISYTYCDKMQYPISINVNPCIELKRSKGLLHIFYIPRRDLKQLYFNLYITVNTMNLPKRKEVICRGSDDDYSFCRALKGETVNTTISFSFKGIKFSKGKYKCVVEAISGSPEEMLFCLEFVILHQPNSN

[3] = Cmax in Sprague-Dawley rat plasma at 10 mg/kg, iv measured immediately post treatment by UPLC analysis; assay type: ADME, organism-based; set-up: dose 10 mg/kg, route intravenous
Mus musculus [4] = assay: (§1) Antiinflammatory activity in acute lung injury C57BL/6 mouse model assessed as inhibition of LPS-induced TNF-alpha mRNA expression in lung tissues at 20 mg/kg, po treated 15 mins before LPS challenge measured after 6 hrs; assay type: functional, organism-based
Mus musculus [5] = assay: Antiinflammatory activity in acute lung injury C57BL/6 mouse model assessed as inhibition of LPS-induced IL-1beta mRNA expression in lung tissues at 20 mg/kg, po treated 15 mins before LPS challenge measured after 6 hrs; assay type: functional, organism-based
Mus musculus [6] = assay: Antiinflammatory activity in acute lung injury C57BL/6 mouse model assessed as inhibition of LPS-induced interstitial edema at 20 mg/kg, po treated 15 mins before LPS challenge measured after 6 hrs by hematoxylin and eosin staining based light microscopic analysis; assay type: functional, organism-based
[7] = target: Mitogen-activated protein kinase 3 (Homo sapiens) (UniProt P27361); assay: Inhibition of full length recombinant human N-terminal GST-tagged ERK1 (1 to 379 residues) expressed in Escherichia coli using modified erktide as substrate at 0.05 to 50 uM after 1 hr by microfluidic assay
Mitogen-activated protein kinase 3 (Homo sapiens), sequence (P27361 whole entry, the tested form may be a part): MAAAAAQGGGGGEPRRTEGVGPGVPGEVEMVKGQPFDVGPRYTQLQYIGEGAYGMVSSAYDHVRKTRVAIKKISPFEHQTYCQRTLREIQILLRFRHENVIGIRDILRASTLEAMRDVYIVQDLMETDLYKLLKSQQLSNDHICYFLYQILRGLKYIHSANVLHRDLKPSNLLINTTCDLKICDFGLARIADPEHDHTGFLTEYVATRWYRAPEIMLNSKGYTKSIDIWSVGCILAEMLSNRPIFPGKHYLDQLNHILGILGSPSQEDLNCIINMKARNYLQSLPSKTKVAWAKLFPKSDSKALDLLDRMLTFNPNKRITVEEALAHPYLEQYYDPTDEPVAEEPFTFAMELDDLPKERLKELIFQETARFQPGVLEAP

Mus musculus [8] = assay: Antiinflammatory activity in acute lung injury C57BL/6 mouse model assessed as inhibition of LPS-induced increase in total cells in bronchoalveolar lavage fluid at 20 mg/kg, po treated 15 mins before LPS challenge measured after 6 hrs by cell counting method; assay type: functional, organism-based
Mus musculus [9] = assay: Antiinflammatory activity in acute lung injury C57BL/6 mouse model assessed as inhibition of LPS-induced thickening of alveolar wall at 20 mg/kg, po treated 15 mins before LPS challenge measured after 6 hrs by hematoxylin and eosin staining based light microscopic analysis; assay type: functional, organism-based
Mus musculus [10] = assay: Antiinflammatory activity in LPS-induced septic shock C57BL/6 mouse model assessed as mouse survival at 10 mg/kg, iv treated 15 mins before LPS challenge measured for 7 days relative to control; assay type: functional; settings: C57BL/6, iv
Mus musculus [11] = assay: Antiinflammatory activity in acute lung injury C57BL/6 mouse model assessed as inhibition of LPS-induced IL-6 mRNA expression in lung tissues at 20 mg/kg, po treated 15 mins before LPS challenge measured after 6 hrs; assay type: functional, organism-based
Mus musculus [12] = assay: Antiinflammatory activity in acute lung injury C57BL/6 mouse model assessed as inhibition of LPS-induced pulmonary congestion at 20 mg/kg, po treated 15 mins before LPS challenge measured after 6 hrs by hematoxylin and eosin staining based light microscopic analysis; assay type: functional, organism-based
Mus musculus [13] = assay: Antiinflammatory activity in acute lung injury C57BL/6 mouse model assessed as inhibition of LPS-induced infiltration of inflammatory cells at 20 mg/kg, po treated 15 mins before LPS challenge measured after 6 hrs by hematoxylin and eosin staining based light microscopic analysis; assay type: functional, organism-based
[14] = Cmax in Sprague-Dawley rat plasma at 20 mg/kg, po after 12 hrs by UPLC analysis; assay type: ADME, organism-based; set-up: dose 20 mg/kg, route oral
[15] = Cmax in Sprague-Dawley rat plasma at 10 mg/kg, iv after 24 hrs by UPLC analysis; assay type: ADME, organism-based; set-up: dose 10 mg/kg, route intravenous
[16] = target: Toll-like receptor 4 (Homo sapiens) (UniProt O00206); assay: Binding affinity to recombinant human TLR4 at 6.25 to 100 uM by surface plasmon resonance analysis
Toll-like receptor 4 (Homo sapiens), sequence (O00206 whole entry): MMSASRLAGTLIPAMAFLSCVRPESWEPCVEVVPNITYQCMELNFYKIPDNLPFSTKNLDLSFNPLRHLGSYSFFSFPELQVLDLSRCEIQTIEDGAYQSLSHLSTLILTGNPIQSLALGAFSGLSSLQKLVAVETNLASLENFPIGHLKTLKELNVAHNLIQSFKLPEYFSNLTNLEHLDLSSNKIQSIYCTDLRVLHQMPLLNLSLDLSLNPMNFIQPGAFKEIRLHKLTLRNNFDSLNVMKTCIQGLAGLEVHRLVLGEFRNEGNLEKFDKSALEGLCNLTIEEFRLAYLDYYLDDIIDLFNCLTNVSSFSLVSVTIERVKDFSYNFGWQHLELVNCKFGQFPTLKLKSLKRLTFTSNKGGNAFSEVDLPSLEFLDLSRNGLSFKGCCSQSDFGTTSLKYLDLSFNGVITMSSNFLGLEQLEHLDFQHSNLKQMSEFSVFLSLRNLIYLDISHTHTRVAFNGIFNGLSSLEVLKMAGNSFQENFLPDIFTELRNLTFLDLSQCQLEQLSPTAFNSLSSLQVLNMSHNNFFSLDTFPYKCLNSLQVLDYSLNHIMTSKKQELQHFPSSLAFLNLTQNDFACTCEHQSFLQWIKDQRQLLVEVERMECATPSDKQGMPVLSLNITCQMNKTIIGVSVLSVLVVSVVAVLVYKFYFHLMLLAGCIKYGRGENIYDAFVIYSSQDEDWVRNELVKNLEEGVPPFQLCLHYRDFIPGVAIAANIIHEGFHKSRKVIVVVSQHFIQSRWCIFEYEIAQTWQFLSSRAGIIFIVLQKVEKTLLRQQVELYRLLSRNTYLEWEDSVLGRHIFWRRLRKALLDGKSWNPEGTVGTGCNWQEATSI

Mus musculus [17] = assay: Antiinflammatory activity in acute lung injury C57BL/6 mouse model assessed as inhibition of LPS-induced MPO activity in lung tissues at 20 mg/kg, po treated 15 mins before LPS challenge measured after 6 hrs; assay type: functional, organism-based
Mus musculus [18] = assay: as §1, with “macrophage infilteration by measuring reduction in CD68” for “TNF-alpha mRNA”, “hrs by DAB staining based immunohistochemical analysis” for “hrs”; assay type: functional, organism-based
[19] = target: Mitogen-activated protein kinase 9 (Homo sapiens) (UniProt P45984); assay: Inhibition of recombinant human N-terminal GST-tagged JNK2 catalytic domain (1 to 364 residues) expressed in Escherichia coli using modified erktide as substrate at 0.05 to 50 uM after 1 hr by microfluidic assay
Mitogen-activated protein kinase 9 (Homo sapiens), sequence (P45984 whole entry, looked up, the tested form may be a part): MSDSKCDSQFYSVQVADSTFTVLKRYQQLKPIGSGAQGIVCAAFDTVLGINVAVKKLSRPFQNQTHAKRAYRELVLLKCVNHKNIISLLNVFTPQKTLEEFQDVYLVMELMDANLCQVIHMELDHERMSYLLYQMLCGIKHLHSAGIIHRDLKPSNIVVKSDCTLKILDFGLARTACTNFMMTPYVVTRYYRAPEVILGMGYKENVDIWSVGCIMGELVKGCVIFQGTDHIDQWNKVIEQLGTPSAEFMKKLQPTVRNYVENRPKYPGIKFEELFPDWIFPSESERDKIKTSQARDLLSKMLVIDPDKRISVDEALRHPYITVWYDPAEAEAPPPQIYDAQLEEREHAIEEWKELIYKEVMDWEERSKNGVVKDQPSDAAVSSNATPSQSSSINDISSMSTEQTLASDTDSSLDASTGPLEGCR

[20] = target: Mitogen-activated protein kinase 11 (Homo sapiens) (UniProt Q15759); assay: Inhibition of full length recombinant human N-terminal GST-tagged p38-beta (1 to 364 residues) expressed in Escherichia coli using modified erktide as substrate at 0.05 to 50 uM after 1 hr by microfluidic assay
Mitogen-activated protein kinase 11 (Homo sapiens), sequence (Q15759 whole entry, the tested form may be a part): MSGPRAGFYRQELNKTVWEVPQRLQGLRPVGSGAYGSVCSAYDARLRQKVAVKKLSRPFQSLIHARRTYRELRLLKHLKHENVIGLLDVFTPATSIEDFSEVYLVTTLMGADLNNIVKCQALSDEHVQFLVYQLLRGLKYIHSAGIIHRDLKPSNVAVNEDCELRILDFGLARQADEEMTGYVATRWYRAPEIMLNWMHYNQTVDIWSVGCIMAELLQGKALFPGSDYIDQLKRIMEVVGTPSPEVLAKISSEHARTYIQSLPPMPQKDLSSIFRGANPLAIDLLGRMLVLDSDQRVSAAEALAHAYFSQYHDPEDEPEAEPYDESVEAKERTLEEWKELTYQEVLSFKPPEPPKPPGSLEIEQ

[21] = target: Mitogen-activated protein kinase 14 (Homo sapiens) (UniProt Q16539); assay: Inhibition of recombinant human N-terminal GST-tagged p38-alpha (9 to 352 residues) expressed in Escherichia coli using modified erktide as substrate at 0.05 to 50 uM after 1 hr by microfluidic assay
Mitogen-activated protein kinase 14 (Homo sapiens), sequence (Q16539 whole entry, the tested form may be a part): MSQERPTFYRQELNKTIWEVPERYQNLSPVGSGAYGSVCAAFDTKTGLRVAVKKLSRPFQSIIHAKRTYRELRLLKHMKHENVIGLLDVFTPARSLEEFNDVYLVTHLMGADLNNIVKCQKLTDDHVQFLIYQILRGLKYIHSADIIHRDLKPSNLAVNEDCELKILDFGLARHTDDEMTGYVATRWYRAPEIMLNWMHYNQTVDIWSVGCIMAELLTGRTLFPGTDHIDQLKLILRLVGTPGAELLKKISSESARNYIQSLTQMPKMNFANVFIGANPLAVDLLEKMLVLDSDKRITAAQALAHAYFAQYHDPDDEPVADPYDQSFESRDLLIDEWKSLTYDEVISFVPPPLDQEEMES

[22] = target: Toll-like receptor 2 (Mus musculus) (UniProt Q9QUN7); assay: Inhibition of TLR2 in mouse RAW264.7 cells assessed as inhibition of Pam3CK-induced TNF-alpha level at 5 to 10 uM preincubated for 2 hrs followed by Pam3CK addition measured after 12 hrs by ELISA; assay type: cell-based
Toll-like receptor 2 (Mus musculus), sequence (Q9QUN7 whole entry): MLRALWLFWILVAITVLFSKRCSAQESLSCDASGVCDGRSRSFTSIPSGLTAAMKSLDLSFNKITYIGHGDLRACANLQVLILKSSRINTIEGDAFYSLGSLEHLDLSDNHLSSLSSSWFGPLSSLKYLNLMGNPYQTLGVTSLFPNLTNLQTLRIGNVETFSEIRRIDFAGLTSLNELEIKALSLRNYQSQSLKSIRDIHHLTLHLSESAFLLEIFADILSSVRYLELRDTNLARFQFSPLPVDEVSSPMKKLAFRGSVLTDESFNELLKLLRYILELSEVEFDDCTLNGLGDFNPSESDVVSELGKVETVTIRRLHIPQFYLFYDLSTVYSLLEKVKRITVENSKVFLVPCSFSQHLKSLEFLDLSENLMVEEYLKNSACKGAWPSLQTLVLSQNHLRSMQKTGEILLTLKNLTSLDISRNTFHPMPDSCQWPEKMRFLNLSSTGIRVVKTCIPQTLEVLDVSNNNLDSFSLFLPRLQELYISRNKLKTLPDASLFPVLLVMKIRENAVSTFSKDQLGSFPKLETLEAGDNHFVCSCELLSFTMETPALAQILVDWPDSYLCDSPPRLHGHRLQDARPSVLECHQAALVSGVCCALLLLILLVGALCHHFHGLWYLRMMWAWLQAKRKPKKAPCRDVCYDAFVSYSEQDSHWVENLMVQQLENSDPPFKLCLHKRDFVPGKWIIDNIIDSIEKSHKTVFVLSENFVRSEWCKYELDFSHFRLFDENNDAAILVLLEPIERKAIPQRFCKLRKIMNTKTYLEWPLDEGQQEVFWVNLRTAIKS

[23] = target: Toll-like receptor 2 (Mus musculus) (UniProt Q9QUN7); assay: Inhibition of TLR2 in mouse RAW264.7 cells assessed as inhibition of Pam3CK-induced IL-6 level at 5 to 10 uM preincubated for 2 hrs followed by Pam3CK addition measured after 12 hrs by ELISA; assay type: cell-based
Mus musculus [24] = assay: Antiinflammatory activity in acute lung injury C57BL/6 mouse model assessed as inhibition of LPS-induced increase in neutrophil level in bronchoalveolar lavage fluid at 20 mg/kg, po treated 15 mins before LPS challenge measured after 6 hrs by wright-gimesa staining based assay; assay type: functional, organism-based
[25] = Cmax in Sprague-Dawley rat plasma at 20 mg/kg, po measured immediately post treatment by UPLC analysis; assay type: ADME, organism-based; set-up: dose 20 mg/kg, route oral
Mus musculus [26] = assay: In vivo inhibition of LPS-induced MD2/TLR4 complex formation in lung tissues of acute lung injury C57BL/6 mouse model at 20 mg/kg, po treated 15 mins before LPS challenge measured after 6 hrs by immunoprecipitation assay; assay type: functional, organism-based
Mus musculus [27] = assay: Antiinflammatory activity in acute lung injury C57BL/6 mouse model assessed as inhibition of LPS-induced lung edema at 20 mg/kg, po treated 15 mins before LPS challenge measured after 6 hrs; assay type: functional, organism-based
[28] = target: T2, Inhibitor of nuclear factor kappa-B kinase subunit beta (Homo sapiens) (UniProt O14920); assay: Inhibition of recombinant human N-terminal His-tagged IKKbeta (1 to 662 residues) expressed in baculovirus expression system using modified IkBalpha-derived peptide as substrate at 0.05 to 50 uM after 1 hr by microfluidic assay
T2 sequence (whole entry): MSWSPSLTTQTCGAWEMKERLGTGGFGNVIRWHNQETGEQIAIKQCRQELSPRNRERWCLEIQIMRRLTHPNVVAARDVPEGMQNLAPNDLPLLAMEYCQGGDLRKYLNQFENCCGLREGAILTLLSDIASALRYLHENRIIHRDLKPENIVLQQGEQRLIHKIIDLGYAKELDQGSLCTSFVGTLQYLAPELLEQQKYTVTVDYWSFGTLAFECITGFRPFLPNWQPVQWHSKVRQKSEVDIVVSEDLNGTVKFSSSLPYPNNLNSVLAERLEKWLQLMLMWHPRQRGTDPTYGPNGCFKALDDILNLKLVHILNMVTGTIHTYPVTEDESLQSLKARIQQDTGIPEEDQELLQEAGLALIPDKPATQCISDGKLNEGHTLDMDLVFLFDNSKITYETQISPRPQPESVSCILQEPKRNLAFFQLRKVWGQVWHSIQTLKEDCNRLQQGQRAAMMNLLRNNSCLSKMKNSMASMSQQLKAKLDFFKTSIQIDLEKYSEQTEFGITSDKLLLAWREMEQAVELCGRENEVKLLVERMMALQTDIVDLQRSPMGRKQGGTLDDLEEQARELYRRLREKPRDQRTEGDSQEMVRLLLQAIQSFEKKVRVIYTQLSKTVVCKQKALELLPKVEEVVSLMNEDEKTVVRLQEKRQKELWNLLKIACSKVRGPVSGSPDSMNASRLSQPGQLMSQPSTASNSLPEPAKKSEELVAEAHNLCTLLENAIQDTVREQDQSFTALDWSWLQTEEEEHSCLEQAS

Mus musculus [29] = assay: Antiinflammatory activity in acute lung injury C57BL/6 mouse model assessed as inhibition of LPS-induced increase in protein concentration in bronchoalveolar lavage fluid at 20 mg/kg, po treated 15 mins before LPS challenge measured after 6 hrs; assay type: functional, organism-based

Q: With O=C(/C=C/c1cccc(Cl)c1Cl)NCCCc1ccccc1 as the compound, how does the Activity [1] read?
A: Its Activity is “Non-toxic”.

Q: For COc1cc(/C=C/C(=O)NCCNC(=O)/C=C/c2ccc(O)c(OC)c2)ccc1O, which Activity [1] is on record?
A: The Activity was “Non-toxic”.

Q: With COc1ccc(CNC(=O)/C=C/c2cccc(Cl)c2Cl)cc1OC as the compound, how does the Activity [1] read?
A: The Activity was “Non-toxic”.

Q: What about the Activity [2] of the same compound?
A: Its Activity is “inactive”.

Q: For COc1ccc(/C=C/C(=O)NCCNC(=O)/C=C/c2ccc(OC)cc2OC)c(OC)c1, which Cmax [3] is on record?
A: Its Cmax is 550 ng/mL.

Q: What about the Activity [1] of the same compound?
A: The Activity was “Non-toxic”.

Q: And the inhibition (Mus musculus [4])?
A: The inhibition was “Active”.

Q: And the inhibition (Mus musculus [5])?
A: The inhibition was “Active”.

Q: And the inhibition (Mus musculus [6])?
A: Its inhibition is “Active”.

Q: And the inhibition [7]?
A: Its inhibition is “inactive”.

Q: What about the inhibition (Mus musculus [8]) of the same compound?
A: The inhibition was “Active”.

Q: And the inhibition (Mus musculus [9])?
A: Its inhibition is “Active”.

Q: What about the survival at 10 mg/kg (Mus musculus [10]) of the same compound?
A: The survival at 10 mg/kg was 100%.

Q: What about the inhibition (Mus musculus [11]) of the same compound?
A: Its inhibition is “Active”.

Q: What about the inhibition (Mus musculus [12]) of the same compound?
A: Its inhibition is “Active”.

Q: And the inhibition (Mus musculus [13])?
A: Its inhibition is “Active”.

Q: What about the Cmax [14] of the same compound?
A: The Cmax was 40 ng/mL.

Q: And the Cmax [15]?
A: The Cmax was 40 ng/mL.

Q: And the Activity [16]?
A: The Activity was “inactive”.

Q: And the inhibition (Mus musculus [17])?
A: The inhibition was “Active”.

Q: What about the inhibition (Mus musculus [18]) of the same compound?
A: Its inhibition is “Active”.

Q: And the inhibition [19]?
A: Its inhibition is “inactive”.

Q: What about the inhibition [20] of the same compound?
A: The inhibition was “inactive”.

Q: And the inhibition [21]?
A: Its inhibition is “inactive”.

Q: What about the inhibition [22] of the same compound?
A: Its inhibition is “inactive”.

Q: What about the inhibition [23] of the same compound?
A: Its inhibition is “inactive”.

Q: What about the inhibition (Mus musculus [24]) of the same compound?
A: Its inhibition is “Active”.

Q: What about the Cmax [25] of the same compound?
A: Its Cmax is 270 ng/mL.

Q: And the inhibition (Mus musculus [26])?
A: The inhibition was “Active”.

Q: What about the inhibition (Mus musculus [27]) of the same compound?
A: Its inhibition is “Active”.

Q: And the inhibition [28]?
A: The inhibition was “inactive”.

Q: What about the inhibition (Mus musculus [29]) of the same compound?
A: Its inhibition is “Active”.

Q: Which Activity [1] does the source give for COc1ccc(/C=C/C(=O)N2CCOCC2)c(OC)c1 here?
A: Its Activity is “Non-toxic”.

Q: For COc1ccc(/C=C/C(=O)NCCCc2ccccc2)c(OC)c1, which Activity [1] is on record?
A: The Activity was “Non-toxic”.

Q: With COc1ccc(/C=C/C(=O)NCCc2ccccc2)c(OC)c1 as the compound, how does the Activity [1] read?
A: The Activity was “Non-toxic”.

Q: With CCCCNC(=O)/C=C/c1ccc(O)c(OC)c1 as the compound, how does the Activity [1] read?
A: Its Activity is “Non-toxic”.

Q: With O=C(/C=C/c1cccc(Cl)c1Cl)NCCNC(=O)/C=C/c1cccc(Cl)c1Cl as the compound, how does the Activity [1] read?
A: The Activity was “Non-toxic”.

Q: For COc1ccc(/C=C/C(=O)NCc2ccc(Cl)cc2)c(OC)c1, which Activity [1] is on record?
A: The Activity was “Non-toxic”.

Q: For O=C(/C=C/c1cccc(Cl)c1Cl)N1CCOCC1, which Activity [1] is on record?
A: The Activity was “Non-toxic”.

Q: For O=C(/C=C/c1cccc(Cl)c1Cl)NCCc1ccccc1, which Activity [1] is on record?
A: The Activity was “Non-toxic”.

Q: Which Activity [1] does the source give for COc1cc(/C=C/C(=O)NCCCCCCNC(=O)/C=C/c2ccc(O)c(OC)c2)ccc1O here?
A: The Activity was “Non-toxic”.

Q: For COc1cc(/C=C/C(=O)NCc2ccc(OC)c(OC)c2)ccc1O, which Activity [1] is on record?
A: The Activity was “Non-toxic”.

Q: For COc1ccc(/C=C/C(=O)NCc2ccccc2)c(OC)c1, which Activity [1] is on record?
A: Its Activity is “Non-toxic”.

Q: For COc1ccc(/C=C/C(=O)NCc2ccc(F)cc2)c(OC)c1, which Activity [1] is on record?
A: Its Activity is “Non-toxic”.

Q: For COc1ccc(CCNC(=O)/C=C/c2ccc(OC)cc2OC)cc1, which Activity [1] is on record?
A: Its Activity is “Non-toxic”.
